What all share (type): cell-based
The subject of assay [1] is UM-UC-14 (FGFR3-S249C) cells. The assay can be described thus: Cell proliferation assay (CellTiterGlo), UM-UC-14 cells. To be noted: UMUC14, 72 h, inhibition of cell growth, intracellular ATP (CellTiterGlo). From the text:
(§1) The following is a non-limiting example that describes a cell proliferation assay used to determine the biological activity of the compounds of the present disclosure. More specifically, the assay as used to assess the ability of the compounds to inhibit cell proliferation.
(§2) Briefly, SNU-16 (FGFR2-amplification) cells, were resuspended at 18,520c/ml mL in RPMI containing 10% Heat Inactivated FBS, 1% L-glutamine and dispensed in duplicate (463c/well) into 384 well plates. UM-UC-14 (FGFR3-S249C) cells were resuspended at 40.000c/ml mL in RPMI containing 10% Heat Inactivated FBS, 1% L-glutamine and dispensed in duplicate (1000c/well) into 384 well plates. DMS-114 (FGFR1 overexpression) cells and were resuspended at 40,000c/ml mL in RPMI containing 10% Heat Inactivated FBS, 1% L-glutamine and dispensed in duplicate (1000c/well) into 384 well plates. RT-112 (FGFR3-Tacc3 fusion) cells were resuspended at 40,000c/ml mL in RPMI containing 10% Heat Inactivated FBS, 1% L-glutamine and dispensed in duplicate (1000c/well) into 384 well plates. To determine the effect of the compounds of the present disclosure on cell proliferation, SNU-16, UM-UC-14, DMS-114 and RT112 cells were incubated for 72 hours in the presence of vehicle control (DMSO) or a compound of the present disclosure at varying concentrations. Inhibition of cell growth was subsequently determined by luminescent quantification (Envision by Perkin Elmer) of intracellular ATP content using CellTiterGlo (Promega), according to the protocol provided by the manufacturer. To determine the IC50 values, the vehicle-treated cells were normalized as viable cells and analyzed using the CDD Vault software (Collaborative Drug Discovery, Burlingame, CA).
(ATP-based viability assays read luminescence as a measure of living cells.)

Assay [2] concerns DMS-114 (FGFR1 overexpression) cells. Put plainly: Cell proliferation assay (CellTiterGlo), DMS-114 cells. To be noted: Homo sapiens, 72 hours, inhibition of cell growth, intracellular ATP (CellTiterGlo).
Text: as §1, §2

For assay [3], the system named is RT-112 (FGFR3-Tacc3 fusion) cells. Put plainly: Cell proliferation assay (CellTiterGlo), RT-112 cells. The settings on record: Homo sapiens, RT-112, 72 h, RT112 cells, inhibition of cell growth, intracellular ATP (CellTiterGlo).
Text: as §1, §2

In assay [4] the test system is SNU-16 (FGFR2-amplification) cells. Put plainly: Cell proliferation assay (CellTiterGlo), SNU-16 cells. The settings on record: inhibition of cell growth, intracellular ATP (CellTiterGlo).
Text: as §1, §2

As to `Cc1nc2ccc(Oc3ccc4ncc(-c5cnn(CC6CCN(S(=O)(=O)CC(C)C)CC6)c5)nc4c3Cl)cc2[nH]1` [Compound 37], the IC50 lay within 0.02 to 0.1 µM in assay [1]; 0.1 to 0.4 µM in assay [2]; 0.02 to 0.1 µM in assay [3]; 0.02 to 0.1 µM in assay [4] (Homo sapiens, SNU-16, 72 h).

For the compound `Cc1nc2ccc(Oc3ccc4ncc(-c5cnn(CC6CCN(C(C)C)CC6)c5)nc4c3Cl)cc2[nH]1` [Compound 24], the IC50 in assay [1] is < 0.02 µM; in assay [2], 0.1 to 0.4 µM; in assay [3] it was < 0.02 µM; in assay [4] (Homo sapiens, SNU-16, 72 h) it was < 0.02 µM.

With `Cc1nc2ccc(Oc3ccc4ncc(-c5cnn(C6CCN(C)C6)c5)nc4c3Cl)cc2[nH]1` (stereo not shown) [Compound 26], the IC50 in assay [1] is 0.02 to 0.1 µM; in assay [2], 0.1 to 0.4 µM; in assay [3], < 0.02 µM; in assay [4] (Homo sapiens, SNU-16, 72 h), < 0.02 µM.

Take `Cc1nc2ccc(Oc3ccc4ncc(-c5cnn(CC6CNC6)c5)nc4c3Cl)cc2[nH]1` [Compound 16]: the IC50 in assay [1] was 0.1 to 0.4 µM; in assay [2], ≥ 0.4 µM; in assay [3] it was 0.1 to 0.4 µM; in assay [4] (Homo sapiens, SNU-16, 72 h), 0.1 to 0.4 µM.

With `Cc1nc2ccc(Oc3ccc4ncc(-c5cnn(CC6CCN(C)CC6)c5C)nc4c3Cl)cc2[nH]1` [Compound 31], the 50% inhibitory concentration (IC50) in assay [1] lay in the range of 0.02 to 0.1 µM; in assay [2] it was 0.1 to 0.4 µM; in assay [3], 0.02 to 0.1 µM; in assay [4] (Homo sapiens, SNU-16, 72 h), 0.02 to 0.1 µM.

Take `Cc1cn2ccc(Oc3ccc4ncc(-c5cnn(CC6CCN(C)CC6)c5)nc4c3Cl)cc2n1` [Compound 63]: the IC50 in assay [1] is ≥ 0.4 µM; in assay [2] it was ≥ 0.4 µM; in assay [3], 0.1 to 0.4 µM; in assay [4] (Homo sapiens, SNU-16, 72 h), 0.1 to 0.4 µM.

As for `Cc1nc2ccc(Oc3ccc4ncc(-c5cnn(C6CCNCC6)c5)nc4c3Cl)cc2[nH]1` [Compound 21], the IC50 was 0.02 to 0.1 µM in assay [1]; 0.1 to 0.4 µM in assay [2]; < 0.02 µM in assay [3]; 0.02 to 0.1 µM in assay [4] (Homo sapiens, SNU-16, 72 h).

Consider `Cc1nc2ccc(Oc3ccc4ncc(-c5cnn(CC6CCN(C)C6)c5)nc4c3Cl)cc2[nH]1` (stereo not shown) [Compound 4], for which the 50% inhibitory concentration (IC50) in assay [1] is 0.02 to 0.1 µM; in assay [2], 0.1 to 0.4 µM; in assay [3] it was 0.02 to 0.1 µM; in assay [4] (Homo sapiens, SNU-16, 72 h) it was 0.02 to 0.1 µM.

Consider `Cc1nc2ccc(Oc3ccc4ncc(-c5cn[nH]c5)nc4c3Cl)cc2[nH]1` [Compound 51], for which the IC50 in assay [1] is ≥ 0.4 µM; in assay [2] it was ≥ 0.4 µM; in assay [3], 0.1 to 0.4 µM; in assay [4] (Homo sapiens, SNU-16, 72 h) it was ≥ 0.4 µM.

As to `Cc1nc2cc(Oc3ccc4ncc(-c5cnn(CC6CCOCC6)c5)nc4c3)ccc2[nH]1` [Compound 62], the IC50 was 0.1 to 0.4 µM in assay [1]; ≥ 0.4 µM in assay [2]; 0.02 to 0.1 µM in assay [3]; 0.02 to 0.1 µM in assay [4] (Homo sapiens, SNU-16, 72 h).

Consider `Cc1nc2ccc(Oc3cc4nc(-c5cnn(CC6CCN(C)CC6)c5)cnc4cc3F)cc2[nH]1` [Compound 49], for which the 50% inhibitory concentration (IC50) in assay [1] is ≥ 0.4 µM; in assay [2], ≥ 0.4 µM; in assay [3] it was ≥ 0.4 µM; in assay [4] (Homo sapiens, SNU-16, 72 h), ≥ 0.4 µM.

In the case of `Cc1nc2ccc(Oc3ccc4ncc(-c5cnn(CC6CCN(C)CC6)c5)nc4c3F)cc2[nH]1` [Compound 36], the IC50 in assay [1] is 0.1 to 0.4 µM; in assay [2], ≥ 0.4 µM; in assay [3], 0.1 to 0.4 µM; in assay [4] (Homo sapiens, SNU-16, 72 h), 0.1 to 0.4 µM.

For the compound `C=CC(=O)N1CCC(Cn2cc(-c3cnc4ccc(Oc5ccc6nc(C)[nH]c6c5)c(Cl)c4n3)cn2)CC1` [Compound 38], the IC50 in assay [1] is 0.02 to 0.1 µM; in assay [2], 0.1 to 0.4 µM; in assay [3] it was < 0.02 µM; in assay [4] (Homo sapiens, SNU-16, 72 h), 0.02 to 0.1 µM.

For the compound `Cc1nc2ccc(Oc3ccc4ncc(-c5cnn(CC6CCNCC6)c5)nc4c3Cl)cc2[nH]1` [Compound 11], the half-maximal inhibitory concentration (IC50) in assay [1] was 0.1 to 0.4 µM; in assay [2], ≥ 0.4 µM; in assay [3] it was 0.02 to 0.1 µM; in assay [4] (72 hours), 0.02 to 0.1 µM.

For the compound `Cc1nc2ccc(Oc3ccc4ncc(-c5cnn(CC6CC(C)N(C)C(C)C6)c5)nc4c3Cl)cc2[nH]1` (stereo not shown) [Compound 5], the half-inhibitory concentration (IC50) is 0.02 to 0.1 µM in assay [1]; ≥ 0.4 µM in assay [2]; 0.02 to 0.1 µM in assay [3]; 0.02 to 0.1 µM in assay [4] (Homo sapiens, SNU-16, 72 h).

Regarding `COC(=O)CS(=O)(=O)N1CCC(Cn2cc(-c3cnc4ccc(Oc5ccc6nc(C)[nH]c6c5)c(Cl)c4n3)cn2)CC1` [Compound 29], the concentration for half-maximal inhibition (IC50) in assay [1] is ≥ 0.4 µM; in assay [2] it was ≥ 0.4 µM; in assay [3] it was 0.1 to 0.4 µM; in assay [4] (Homo sapiens, SNU-16, 72 h), ≥ 0.4 µM.

In the case of `Cc1nc2ccc(Oc3ccc4ncc(-c5cnn(CC6CCN(C)CC6)c5)nc4c3Cl)cc2[nH]1` [Compound 14], the concentration for half-maximal inhibition (IC50) in assay [1] was < 0.02 µM; in assay [2], 0.1 to 0.4 µM; in assay [3], < 0.02 µM; in assay [4] (Homo sapiens, SNU-16, 72 h) it was < 0.02 µM.

On to `Cc1nc2ccc(Oc3ccc4ncc(-c5cnn(CC6CCN(S(=O)(=O)CC#N)CC6)c5)nc4c3Cl)cc2[nH]1` [Compound 28], for which the IC50 was 0.02 to 0.1 µM in assay [1]; 0.1 to 0.4 µM in assay [2]; 0.02 to 0.1 µM in assay [3]; 0.02 to 0.1 µM in assay [4] (Homo sapiens, SNU-16, 72 h).

As for `Cc1nc2ccc(Oc3ccc4ncc(-c5cnn(CC6CCN(S(C)(=O)=O)CC6)c5)nc4c3Cl)cc2n1S(C)(=O)=O` [Compound 33], the IC50 is 0.1 to 0.4 µM in assay [1]; ≥ 0.4 µM in assay [2]; 0.02 to 0.1 µM in assay [3]; 0.02 to 0.1 µM in assay [4] (Homo sapiens, SNU-16, 72 h).

`Cc1nc2ccc(Oc3ccc4ncc(-c5cnn(CC6CC6)c5)nc4c3Cl)cc2[nH]1` [Compound 44]: the IC50 in assay [1] is 0.1 to 0.4 µM; in assay [2], ≥ 0.4 µM; in assay [3], 0.1 to 0.4 µM; in assay [4] (Homo sapiens, SNU-16, 72 h), 0.1 to 0.4 µM.

In the case of `Cc1nc2ccc(Oc3ccc4ncc(-c5cnn(C6CCNC6)c5)nc4c3Cl)cc2[nH]1` (stereo not shown) [Compound 27], the half-maximal inhibitory concentration (IC50) in assay [1] was 0.02 to 0.1 µM; in assay [2], ≥ 0.4 µM; in assay [3], 0.02 to 0.1 µM; in assay [4] (Homo sapiens, SNU-16, 72 h), 0.1 to 0.4 µM.

As to `Cc1nc2ccc(Oc3ccc4ncc(-c5cnn(CC6CC(F)(F)C6)c5)nc4c3Cl)c(F)c2[nH]1` [Compound 68], the IC50 in assay [1] was 0.02 to 0.1 µM; in assay [2] it was ≥ 0.4 µM; in assay [3] it was 0.02 to 0.1 µM; in assay [4] (Homo sapiens, SNU-16, 72 h), 0.02 to 0.1 µM.

In the case of `Cc1nc2ccc(Oc3cc4nc(-c5cnn(CC6CCN(C)CC6)c5)cnc4cc3C)cc2[nH]1` [Compound 50], the half-inhibitory concentration (IC50) is ≥ 0.4 µM in assay [1]; ≥ 0.4 µM in assay [2]; ≥ 0.4 µM in assay [3]; ≥ 0.4 µM in assay [4] (Homo sapiens, SNU-16, 72 h).

For `Cc1nc2ccc(Oc3ccc4ncc(-c5cnn(CCC6CCN(C)CC6)c5)nc4c3)cc2[nH]1` [Compound 55], the half-maximal inhibitory concentration (IC50) in assay [1] was 0.1 to 0.4 µM; in assay [2] it was ≥ 0.4 µM; in assay [3], 0.1 to 0.4 µM; in assay [4] (Homo sapiens, SNU-16, 72 h) it was 0.1 to 0.4 µM.

As to `Cc1nc2ccc(Oc3ccc4ncc(-c5cnn(CC6CCOC(C)(C)C6)c5)nc4c3Cl)cc2[nH]1` (stereo not shown) [Compound 8], the half-inhibitory concentration (IC50) in assay [1] is 0.02 to 0.1 µM; in assay [2], 0.1 to 0.4 µM; in assay [3], < 0.02 µM; in assay [4] (Homo sapiens, SNU-16, 72 h), 0.02 to 0.1 µM.

As for `Cc1nc2ccc(Oc3ccc4ncc(-c5cnn(C6CCC(F)(F)CC6)c5)nc4c3Cl)cc2[nH]1` [Compound 66], the IC50 was 0.1 to 0.4 µM in assay [1]; ≥ 0.4 µM in assay [2]; 0.1 to 0.4 µM in assay [3]; 0.1 to 0.4 µM in assay [4] (Homo sapiens, SNU-16, 72 h).

Take `Cc1nc2ccc(Oc3ccc4ncc(-c5c(C)nn(CC6CCN(C)CC6)c5C)nc4c3Cl)cc2[nH]1` [Compound 52]: the half-maximal inhibitory concentration (IC50) in assay [1] was 0.1 to 0.4 µM; in assay [2], ≥ 0.4 µM; in assay [3], 0.1 to 0.4 µM; in assay [4] (Homo sapiens, SNU-16, 72 h), 0.1 to 0.4 µM.

For `Cc1nc2ccc(Oc3ccc4ncc(-c5cnn(C6CCCNC6)c5)nc4c3Cl)cc2[nH]1` (stereo not shown) [Compound 7], the IC50 in assay [1] was in the range of 0.02 to 0.1 µM; in assay [2] it was 0.1 to 0.4 µM; in assay [3], 0.02 to 0.1 µM; in assay [4] (Homo sapiens, SNU-16, 72 h) it was 0.02 to 0.1 µM.

A word on the IC50: it is the concentration that inhibits the measured activity by half. Lower therefore signals greater potency.

The record behind these values is patent US20240368181A1, “QUINOXALINE DERIVATIVES AND USES THEREOF” (Black Diamond Therapeutics, Inc., priority 2021, published 2024).
